From US6413747B1, “Enhancement of nucleic acid amplification by the addition of a polyamine” (Shimadzu Corporation, priority 1994, dated 2002)
“Also recorded” adds a separate entry of the source.

Columns and labels:
[1] = test system: DNA from LT Escherichia coli; type: biochemical; settings: for maximum concentration of feces at which amplification bands are observed, relative to no addition of polyamine (J) / appearance of amplification bands: polyamine 1 mM; for maximum concentration of feces at which amplification bands are observed, relative to no addition of polyamine (J): 40 cycles; for reduction of inhibition of PCR due to feces (summary): human feces samples; for appearance of amplification bands: human feces
Procedure: A sample was obtained by making an 8% suspension of human feces in TE buffer and subjecting it to a heat treatment at 95° C. for 10 minutes. […] The detection was carried out as in Experiment No. 1.

HIV DNA [2] = assay: PCR with human white blood cells, 2 mM polyamine, varying number of HIV DNA copies (Experiment No. 2); type: biochemical, HIV-1; settings: polyamine 2 mM; for number of HIV DNA copies detected (lowest): 40 cycles, copies/tube
Procedure: White blood cells were obtained by taking 14 μl (7×10^4 WBC) of human blood, centrifuging it and removing therefrom the supernatant. Various polyamines (2 mM), HIV DNA (1000, 100 10 and 0 copies/tube) and PCR core solution were added to the white blood cells thus collected for carrying out PCR (total 50 μl ). The same PCR core solution was used as in Experiment No. 1. The PCR was carried out for 40 cycles under the same conditions as in Experiment 1, and the amplification detection was carried out as in Experiment No. 1.

DNA = assay: PCR with soil or tobacco leaf extract and spermidine (Example No. 3); type: biochemical; settings: extract from soil or tobacco leaf (Groups B and C, Lanes 2-4)
Procedure: Used as the sample was 100 mg of sandy soil from a rice field or 100 mg of homogenized tobacco leaf. The sample was dissolved with 0.1 M EDTA and 0.1% SDS, purified with weakly negative ion-exchange resin (DEAE-Sepharose, fast flow (Pharmacia)), and eluted with 400 μl of 10 mM of tris-HCl (pH 7.0) containing 1 M NaCl. The extract which was colored light brown or light green indicated existence of much contamination of impurities for rough purification material. PCR was carried out after polyamine and PCR core solution were added to the extract. PCR core solution was prepared by removing KCl from the core solution used in Example No. 1. The amount of the PCR core solution was 24 μl, and 3 μl each of DNA-containing extract and spermidine solution was added thereto. PCR and detection of amplified DNA was carried out as in Example No. 1.
In FIG. 5, A indicates a positive control group containing only DNA, B indicates a group with soil extract mixed thereto, and C indicates a group with a tobacco leaf extract mixed thereto. The final concentration of polyamine was zero in Lane 1, 0.5 mM in Lane 2, 1 mM in Lane 3, 2 mM in Lane 4, 4 mM in Lane 5 and 8 mM in Lane 6. Lane M indicates a molecular weight marker.

HIV DNA [3] = assay: PCR with human white blood cells, varying polyamine concentration (Experiment No. 1); type: biochemical, HIV-1
Procedure: White blood cells were obtained by taking 14 μl (7×10^4 WBC) of human blood, centrifuging it and removing therefrom the supernatant. Various kinds of polyamine, HIV DNA (100 copies/tube) and PCR core solution were added to the white blood cells thus collected for carrying out PCR (total 50 μl).
After a preheating process of 4 minutes at 94° C., the PCR was carried out for 50 cycles under the conditions of 94° C. for 30 seconds, 60° C. for 1 minute and 72° C. for 1 minute, followed by a polymerization process at 72° C. for 7 minutes. After the PCR was completed, DNAs were detected by electrophoresis with 3% agarose gel containing TAE buffer (40 mM Tris-acetate; 1 mM EDTA, pH 8.0) with 0.5 μg/ml etidium bromide by using 5 μl of the reaction mixture.
and the numerals (1-7) in FIG. 6 indicate the final concentration of polyamine as follows: […]

[4] = test system: β-globin coding region of the mouse; assay: PCR on white blood cells of mouse blood added to human blood, with spermidine (Example No. 2); type: biochemical; settings: spermidine 2 mM, no purification of DNA
Procedure: Used as the sample was 23 μl of human blood (with 6000 white blood cells/microliter) into which 5 μl of mouse blood, diluted step-wise with a phosphate buffer, was added. After the sample was subjected to a lysis process of red blood cells, the white blood cells were precipitated by centrifugation and the supernatant was removed. Polyamine and PCR core solution were added to the precipitated white cells. The primers for the PCR were oligonucleotide (P3, sequence number=3) homologous to plus-chain and oligonucleotide (P4, sequence number=4) homologous to minus-chain, which are located in the β-globin coding region of the mouse and what gives 174 bp PCR products: where
The same PCR core solution was used as in Example No. 1 except that the primers were P3 and P4. The total amount of the PCR reaction solution was 100 μl, and 10 μl of spermidine solution (final concentration: 2 mM) was added. PCR and detection of amplified DNA were carried out as in Example No. 1. […] If polyamine is added (Group A), by contrast, the inhibition of the amplification reaction is effectively removed, and the presence of PCR products can be detected if there are as few as about ten white blood cells of the mouse without any purification of DNA.

[5] = test system: genomic DNA purified from cotton leaves; settings: DNA isolated from plants; report by Wan and Wilkins; cited from earlier work

Compound | maximum concentration of feces at which amplification bands are observed, relative to no addition of polyamine (J) [1] | number of HIV DNA copies detected (lowest) (HIV DNA [2]) | reduction of inhibition of PCR due to feces (summary) [1] | further results
NCCN [A, Ethylenediamine] | 4 times | 10 copies |  | 
NCCCCN [C, Putrescine] | twice as large | 10 copies | hardly any effect | 
NCCNCCN [D, Diethylenetriamine] | 8 times | 10 copies |  | appearance of amplification bands [1]: brighter and thicker amplification bands than E; sensitivity relative to E (HIV DNA [2]): about 10 times
NCCCCNCCCN [E, Spermidine] | 8 times |  |  | polyamine concentration at which PCR products can be detected (DNA): 0.5 to 2 mM; amplification (HIV DNA [3]; polyamine concentration 0.25 mM, human blood): No amplification; number of white blood cells of the mouse at which PCR products can be detected [4]: about ten; optimum concentration [5]: 0.2 to 1 mM
NCCNCCNCCN [F, Triethylenetetramine] | 16 times | 10 copies | good results | 
NCCCNCCCCNCCCN [G, Spermine] | 4 times | could not be detected | hardly any effect | effect on PCR-inhibiting substances derived from blood (HIV DNA [3]; polyamine 0.125-8 mM, human white blood cells, 100 copies HIV DNA/tube, 50 cycles): hardly any effect; also recorded: no such effect was observed; appearance of amplification bands [1]: only thin amplification bands
NCCNCCNCCNCCN [H, Tetraethylenepentamine] |  | 10 copies | good results | 
Trimethylenediamine [B] | twice as large | 10 copies | hardly any effect | 
